Literature values in patent publication US20040216174A1, “Screening assays for targets and drugs useful in treatment and prevention of lipid metabolism disorders” (priority 2003, published 2004).

System: C. elegans
Conditions: treatment with antioxidant

vitamin E
effect on germline development: slows down germline development
